Data on 62 compounds can be found in a melting point compilation (Tetko et al.; mined from patent text by program, amines drawn as free bases though some values may be those of a salt).

Compound `N#Cc1cc(Br)c(NC(=O)NC(=O)c2c(F)cccc2F)cc1Cl` had a melting point of 247 °C. In the case of `CCC(C(=O)O)c1ccc2c(=O)c3ccccc3ccc2c1` (configuration not stated) it was 147 to 148 °C; in that of `CCc1ccc(NC(=O)NCC2(c3ccccc3)CCCCC2)cc1`, 138 to 139 °C; in that of `Nc1ccccc1C(=O)c1ccccn1`, 145 to 146 °C.

`CCCCc1c(-c2ccncc2)[nH]c(-c2ccncc2)c1C(C)=O` had a melting point of 93 to 95 °C. For `CSc1cnc2c(-c3ccccc3)csc2c1O` the value was 273 to 275 °C; for `COc1cccc2c1nc(C1CC1)n2Cc1c(F)cccc1F`, 136 to 139 °C; for `Cc1noc([C@@H](Cc2ccccc2)NC(=O)[C@@H](Cc2ccc3ccccc3c2)NC(=O)C2CCN(C(=O)OC(C)(C)C)CC2)n1`, 152 to 155 °C. Regarding `C[C@@H](Cn1ncc2ccc3c(c21)O[C@@H](CN=[N+]=[N-])CO3)NC(=O)OC(C)(C)C`, the melting point lay in the range of 134 to 135 °C. Regarding `CC(C)C(=O)Nc1nc(CN2CCN(C(c3ccccc3)c3ccccc3)CC2)cs1`, the melting point was in the range of 132 to 140 °C. In the case of `CCOC(=O)c1cn(C2CC2)c2nc(N3C[C@@H](CN)[C@@H](Cl)C3)c(F)cc2c1=O` (relative stereo), the melting point fell in the range of 163 to 167 °C.

For the compound `COc1ccc(C2Sc3c(ccc4ccccc34)N(CCN(C)C)C(=O)C2O)cc1` (configuration not stated), the melting point lay in the range of 160 to 161 °C. The compound `NC(=O)c1cnn2c1NCCC2c1cccc(C(F)(F)F)c1` (configuration not stated) registered a melting point of 152 to 154 °C. For `CC(O)CN1C(C)(C)CC(O)CC1(C)C` (configuration not stated) the value was 97 to 98 °C; for `Cc1ccc(S(=O)(=O)c2nc(C)c(Br)c(C)n2)cc1`, 157 to 158 °C.

`COc1ccc(OC)c2c1C[C@](C)(O)CC21SCCS1` displayed a melting point of 152 to 153 °C. For `CCN(CC)C(=O)CCc1ccc(O)c(N)c1` the value was 92 to 93 °C; for `Nc1nnc(-c2cc(F)c(F)c(F)c2O)s1`, 309 °C; for `CC1(O)CC(=O)OC(CCc2ccc(OCc3ccc(F)cc3)cc2)C1` (configuration not stated), 144 °C.

`CC(O)c1cccc(-c2ccc3nc(-c4ccc(Cl)cc4)cn3c2)c1Cl` (configuration not stated): the melting point lay within 170 to 172 °C. In the case of `CCOC(=O)C(=NOC(C)(C)C(=O)OC(C)(C)C)c1csc(NC(c2ccccc2)(c2ccccc2)c2ccccc2)n1` it was 124 to 125 °C. In the case of `O=C1CCC(c2ccc(Cl)cc2)CN1CNC(=S)NCN1CC(c2ccc(Cl)cc2)CCC1=O` (configuration not stated) it was 212 to 213 °C; in that of `COc1cc(N)ccc1-c1sc(C)nc1C`, 112 to 115 °C; in that of `N#CC=CNc1ccnc(-c2ccncc2)n1`, 253 to 255 °C.

In turn, `CCCc1c(S)ccc2c(=O)cc(C(=O)O)oc12` returned a melting point of 206 to 208 °C.

As for `O=c1cc(N2CCOCC2)oc2ccccc12`, the melting point stood at 143 °C. For `COc1cc(C(=O)C=Cc2ccncc2)cc(OC)c1OC` the value was 127 to 129 °C; for `CC(C)(S)CNC(=O)/C(CCO)=C(\c1ccc(Cl)cc1)c1ccc(S(C)(=O)=O)cc1`, 62 to 64 °C. Consider `CC(C(=O)O)c1cccc2c(-c3ccccc3)onc12` (configuration not stated), for which the melting point is 140 to 144 °C.

As to `COc1cc(CCC2(CCc3ccc(O)c(OC)c3)CC(O)=C(Sc3cc(C)c(OCCO)cc3C(C)(C)C)C(=O)O2)ccc1O`, the melting point was in the range of 76 to 82 °C.

Consider `CC(C)(C)C(=O)N[C@H]1CC[C@H](CCN2CCN(c3nccc4c3OCC4)CC2)CC1`, for which the melting point was 194 °C. For `Cc1nnc(SCC(=O)C23CC4CC(CC(C4)C2)C3)n1C` the value was 113 to 114 °C. For `O=c1ncccn1Cc1ccc2ccccc2c1` the value was 136 to 145 °C.

For `COc1ccc2ccc3c(c2c1)CC(C(=O)O)CO3` (configuration not stated), the melting point amounted to 165 °C.

With `CC#CC1(O)CCC2C3CCC4=CC(=O)CCC4C3C(=CF)CC21CC` (configuration not stated), the melting point lay in the range of 199 to 205 °C. For `CONC(=O)Cc1c(C)n(C(=O)c2ccc(Cl)cc2)c2ccc(OC)cc12` the value was 184 to 185 °C; for `N#CC=C1OC(=O)c2ccccc21`, 178 to 180 °C. For `CCOC(=O)c1cnn2c(C=O)c(Cc3cccc(F)c3C)c(-c3ccccc3)c2c1Cl` the value was 110 to 111 °C. In the case of `Nc1cccc(C(=O)NCC23CC4CC(CC(C4)C2)C3)c1Cl` it was 154 °C; in that of `O=C(O)CCCCC=Cc1cn(-c2cccnc2)c2ccccc12`, 124 to 125 °C.

In the case of `CCCCC(C=O)(CC)CS(=O)(=O)c1ccccc1C(=O)c1ccccc1` (configuration not stated), the melting point was 135 to 136 °C.

As to `COc1ccc(CSc2nnc(-c3ccc4occc4c3)o2)cc1C(F)(F)F`, the melting point fell in the range of 135 to 136 °C. In the case of `O=C(O)c1cc(S(=O)(=O)NC2CCCCC2)cc2c1OCCO2` it was 150 °C.

Consider `CCC#COc1ccc(S(=O)(=O)NC(CSC)C(=O)NO)cc1` (configuration not stated), for which the melting point is 128 to 130 °C. In the case of `Nc1noc2cc3c(cc12)C1(CO3)C(=O)N(Cc2ccccc2C(F)(F)F)c2ccccc21` (configuration not stated) it was 262 to 264 °C; in that of `Cc1cccc(NC(=O)NC(C(=O)N(CC(=O)OC(C)(C)C)c2ccccc2)c2ccccc2)c1` (racemic), 178 °C. For `Nc1cc(=O)n2cc(Cl)c(C(c3c(F)ccc(F)c3F)S(=O)(=O)CCC(F)(F)F)cc2n1` (configuration not stated) the value was 247 °C; for `Cc1cc(C(=O)c2cccc(Cc3ccccc3)c2)c(O)c2ncccc12`, 123 to 124 °C. In the case of `CCCN1C(=O)CC(C)(C)c2cc(C)c(-c3cc(C=O)ccc3OC(F)(F)F)cc21` it was 219 to 223 °C. Compound `Fc1ccc(NCc2ccccc2)cc1` gave a melting point of 38 to 39 °C. In the case of `CCOc1ccccc1C=C1CCc2c1oc1ccc(C(=O)O)cc1c2=O` it was 300 to 302 °C. For `CCCc1nc2c(N)nc(C)c(C)c2n1CCCS(=O)(=O)c1ccc(C(=O)OCC)cc1` the value was 169 to 171 °C.

`CCOC(=O)c1c(O)c2cc(C)ccc2[nH]c1=O`: the melting point worked out at 242 °C. In the case of `O=c1cc(-c2cccc(Br)c2)sc(N2CCOCC2)c1` it was 181 to 182 °C; in that of `COC[C@H](C1CC1)n1cc(Br)nc(Br)c1=O`, 98.5 to 100 °C. In the case of `Cc1c(NC(=O)C(CSC(=O)Cc2cccs2)Cc2ccccc2)cccc1C(=O)O` (configuration not stated) it was 134 to 137 °C; in that of `CCCCCCCc1ccc(C(=O)c2cccc(C(=O)O)c2)cc1`, 124 to 126 °C. In the case of `c1ccc(CC(=Nn2cncn2)c2ccccc2)cc1` it was 78 to 80 °C; in that of `O=C1c2ccccc2C(=O)N1CCCN1c2ccccc2C(c2ccccc2)=Nc2cccnc21`, 170 to 172 °C. With `CC(=O)S[C@@H]1C[C@@H](C(=O)N(CCc2ccccc2)CC(=O)O)N(S(=O)(=O)c2ccc3ccccc3c2)C1`, the melting point fell in the range of 190 to 193 °C. The compound `C[C@H](NC(=O)C[C@@H](CC(=O)O)c1ccc(F)cc1)c1ccccc1` registered a melting point of 195 to 196 °C. For `O=C1CCC(N2Cc3cc(CNC(=O)Nc4ccc(-c5ncc[nH]5)cc4)ccc3C2=O)C(=O)N1` (configuration not stated), the melting point is 190 to 192 °C.

As a reminder, the melting point is the temperature of the solid-liquid transition.
